From patent US20250163379A1, “METHOD FOR DIFFERENTIATING HEMATOPOIETIC STEM/PROGENITOR CELLS INTO NK CELLS” (HEMACELL BIOTECHNOLOGY INC., priority 2022, published 2025)

Legend:
[1] = test system: hematopoietic stem/progenitor cells; assay: Inducing differentiation of hematopoietic stem/progenitor cells into NK cells (CD3-CD56+); format: cell-based; settings: GABA pathway activator in initial differentiation medium; control group 75.6%; FIG. 1
Method: (§1) The experiment was carried out according to the following steps: • (1) Inoculating hematopoietic stem/progenitor cells into an initial differentiation medium and culturing at 35-39° C. and 3-7%0CO2 for 5 days; • (2) Continuing culturing cells in NIK differentiation medium I for 3-5 days; • (3) Continuing culturing the cells in NK differentiation medium II; replacing half of the culture medium every 5 to 6 days for 22 to 28 days or until NK cells are obtained. • (4) Basal differentiation medium: DMEM high glucose medium, Ham's F-12Nutrient Mix, GlutaMAX™ supplement medium, heat-inactivated human AB serum, L-glutamic acid, 2-mercaptoethanol, sodium selenite, aminoethanol and L-ascorbic acid. • (5) Initial differentiation medium: basal differentiation medium, SCF (15-25 ng/mL); IL3 (3-7 ng/mL); IL7 (15-25 ng/mL); IL15 (8-12 ng/mL); Flt3-L (8-12 ng/mL); GABA pathway activator. • (6) NK differentiation medium I: basal differentiation medium; SCF (15-25 ng/mL); IL3 (3-7 ng/mL); IL7 (15-25 ng/mL); IL15 (8-12 ng/mL); Flt3-L (8-12 ng/mL). • (7) NK differentiation medium II: basal differentiation medium; SCF (15-25 ng/mL); IL15 (8-12 ng/mL); IL7 (15-25 ng/mL); Flt3-L (8-12 ng/mL).
CD3 is a marker of T cells, CD56 is a marker of NK cells, and the characterization of NK cells is CD3-CD56+. […]

[2] = test system: hematopoietic stem/progenitor cells; assay: Flow cytometry analysis of induced NK cells for cytotoxic markers (CD16, CD314, CD335, CD336); format: cell-based; settings: for efficiency of obtaining CD16+CD56+ NK cells: control group 5.45%, FIG. 2; for efficiency of obtaining CD314+ NK cells: control group 10.1%, FIG. 3; for efficiency of obtaining CD335+ NK cells: control group 12.4%, FIG. 4; for efficiency of obtaining CD336+ NK cells: control group 35.7%, FIG. 5
Method: as §1
Flow cytometry analysis of induced NK cells
(1) Collection of NK cells: The cells were centrifuged at 300 g for 5 min; the supernatant was discarded, an equal volume of FACS buffer was added to wash and resuspend the cells, and the cells were centrifuged; the above steps were repeated twice; the cells were centrifuged and the supernatant was discarded, and thereafter, 125 μL of FACS buffer was added to resuspend the cells.
(2) Cell staining: 2.5 μL of labeled antibody was added to the cell suspension (volume ratio of labeled antibody:cell=1:50), the system was mixed well, and allowed to react at room temperature in the dark for 30 min; after centrifugation, the supernatant was discarded; 1 mL of FACS buffer was added to wash and resuspend the cells, the cells were centrifuged, and the above steps were repeated twice; the cells were centrifuged and the supernatant was discarded, and thereafter 250 μL of FACS buffer was added to resuspend the cells, the system was transferred to a Falcon flow tube, and placed on ice; 0.25 μL of DAPI was added before loading, the system was mixed well for later loading and detection.
(3) Preparation of single-color compensation control: The microspheres were mixed evenly by inverting vigorously at least 10 times or pulse vortexing; to each EP tube, 1 drop of UltraCompe Beads was added, then 1 μL of fluorescent antibody conjugate was added, the system was well mixed by blowing-suction with a pipette, and incubated at room temperature in the dark for 30 min; 1 mL of FACS buffer was added to each EP tube, the system was centrifuged at 400 g for 5 min at room temperature; the supernatant was sucked out carefully without removing the beads, and then 250 μL of FACS buffer was added to each test tube; the sample was mixed evenly by flicking or pulse vortexing before analysis.
(4) Detection on the flow cytometer: Before detection, the stained cells were placed on ice to prevent cell aggregation; at least 10,000 cells were tested for each sample; unstained cells were analyzed on the flow cytometer, and appropriate FSC and side scatter SSC as well as the voltage of the fluorescence detector PMT were set. […]

| SMILES | efficiency of obtaining NK cells (CD3-CD56+) [1] [%] | efficiency of obtaining CD16+CD56+ NK cells [2] [%] | efficiency of obtaining CD314+ NK cells [2] [%] | efficiency of obtaining CD335+ NK cells [2] [%] | efficiency of obtaining CD336+ NK cells [2] [%] |
| --- | --- | --- | --- | --- | --- |
| NCCCC(=O)O [GABA, γ-aminobutyric acid] | 88.3 | 5.86 | 11.0 | 18.2 | 48.2 |
| NC/C=C/C(=O)O [TACA, trans-4-aminocrotonic acid] | 87.2 | 9.71 | 18.4 | 21.1 | 48.8 |
